This is an account of results in US20230087118A1, “IMIDAZO[1,2-a][sequence] DERIVATIVES AND THEIR USE IN THE TREATMENT OF DISEASE” (priority 2019, published 2023).

Structures are written as SMILES. Where a name gives a salt, the structure may show the parent alone.

One assay deals with T1, IRAK4 (Homo sapiens, UniProt Q9NWZ3).
T1 sequence (Q9NWZ3 1-460): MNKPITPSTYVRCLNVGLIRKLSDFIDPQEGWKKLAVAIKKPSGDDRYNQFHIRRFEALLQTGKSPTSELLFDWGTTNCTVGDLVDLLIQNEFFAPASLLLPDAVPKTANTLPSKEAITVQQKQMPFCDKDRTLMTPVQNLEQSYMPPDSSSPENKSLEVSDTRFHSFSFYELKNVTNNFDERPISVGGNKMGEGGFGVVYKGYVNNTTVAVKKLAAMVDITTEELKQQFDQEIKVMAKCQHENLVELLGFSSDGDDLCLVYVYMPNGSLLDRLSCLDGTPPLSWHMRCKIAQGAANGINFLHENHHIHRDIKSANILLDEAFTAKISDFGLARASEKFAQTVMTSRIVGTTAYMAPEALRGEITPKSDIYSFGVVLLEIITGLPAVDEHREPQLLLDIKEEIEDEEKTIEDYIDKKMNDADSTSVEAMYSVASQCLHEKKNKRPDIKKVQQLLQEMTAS
Description: biochemical.
Settings: not given
The compound `CCOc1nc(C(=O)Nc2cccnc2OC)cn2cc(C34COC(C)(C3)C4)nc12` [Example 225] showed an IC50 of 0.0052 µM.
In the case of `CC(C)Oc1nc(C(=O)Nc2ccn(C)n2)cn2cc([C@@]34CC[C@@](C)(C3)OC4)nc12` (single isomer, unassigned) [Example 592], the IC50 turned out to be 0.0034 µM.
On the same count and under the same terms, under `COc1ncccc1NC(=O)c1cn2cc(C3CC3)nc2cc1OC1CCC1` [Example 462, 7-Cyclobutoxy-2-cyclopropyl-N-(2-methoxypyridin-3-yl)imidazo[1,2-a]pyridine-6-carboxamide] stands 0.0032 µM; under `CC(C)Oc1nc2nc(C34COC(C)(C3)C4)cn2cc1C(=O)Nc1cccc2scnc12` [Example 378, N-(benzo[d]thiazol-4-yl)-7-isopropoxy-2-(1-methyl-2-oxabicyclo[2.1.1]hexan-4-yl)imidazo[1,2-a]pyrimidine-6-carboxamide], 0.0002 µM.
On the same count and under the same terms, under `CC(C)Oc1nc2nc([C@]34CC[C@](C)(C3)OC4)cn2cc1C(=O)Nc1cccc(C(F)F)n1` (single isomer, unassigned) [Example 577] stands 0.0002 µM; under `COc1nc(C(=O)Nc2cccc(C(F)(F)F)n2)cn2cc(C[C@H]3CCOC3)nc12` (single isomer, unassigned) [Example 71], 0.0311 µM.
In the case of `COc1cc2nc(C3CCOCC3)cn2cc1C(=O)Nc1cccnc1C(C)C` [Example 187], half-maximal inhibition (IC50) was put at 0.148 µM.
The compound `CCOc1nc(C(=O)Nc2cccnc2OC)cn2cc([C@@]34CC[C@@](C)(C3)OC4)nc12` (single isomer, unassigned) [Example 605] had an IC50 of 0.0004 µM.
Compound `CC(C)Oc1cc2nccn2cc1C(=O)Nc1cccc(C(F)F)n1` [Example 220] had an IC50 of 0.0115 µM.
`CCc1cccc(NC(=O)c2cn3cc(C4CCOCC4)nc3c(OC)n2)n1` [Example 86] displayed an IC50 of 0.034 µM.
The compound `CC(C)Oc1nc2nc(C34COC(C)(C3)C4)cn2cc1C(=O)Nc1cnc2cccnn12` [Example 373, N-(imidazo[1,2-b]pyridazin-3-yl)-7-isopropoxy-2-(1-methyl-2-oxabicyclo[2.1.1]hexan-4-yl)imidazo[1,2-a]pyrimidine-6-carboxamide] had an IC50 of 0.0006 µM.
Still for that read-out and setting: for `CC(C)Oc1ncccc1NC(=O)c1cn2cc(C34CCC(C)(C3)OC4)nc2cc1OC1CCC1` (centres unmarked) [Example 539, 7-Cyclobutoxy-N-(2-isopropoxypyridin-3-yl)-2-(1-methyl-2-oxabicyclo[2.2.1]heptan-4-yl)imidazo[1,2-a]pyridine-6-carboxamide] the value was 0.0229 µM; for `CCCOc1nc(C(=O)Nc2cccnc2OC)cn2cc(C34COC(C)(C3)C4)nc12` [Example 342, N-(2-methoxypyridin-3-yl)-2-(1-methyl-2-oxabicyclo[2.1.1]hexan-4-yl)-8-propoxyimidazo[1,2-a]pyrazine-6-carboxamide], 0.001 µM.
`CC(C)Oc1cc2nc(C34COC(C)(C3)C4)c(F)n2cc1C(=O)Nc1cnn2cccnc12` [Example 328, 3-Fluoro-7-isopropoxy-2-(1-methyl-2-oxabicyclo[2.1.1]hexan-4-yl)-N-(pyrazolo[1,5-a]pyrimidin-3-yl)imidazo[1,2-a]pyridine-6-carboxamide] showed an IC50 of 0.006 µM.
`CCOc1nc(C(=O)Nc2cccc(C(F)F)n2)cn2cc(C3CCCOC3)nc12` (centres unmarked) [Example 223] showed an IC50 of 0.0022 µM.
Still for that read-out and setting: under `Cn1ccc(NC(=O)c2cn3cc(C45CCC(C)(C4)OC5)nc3cc2OC2CCCC2)n1` (centres unmarked) [Example 632, 7-(Cyclopentyloxy)-N-(1-methyl-1H-pyrazol-3-yl)-2-(1-methyl-2-oxabicyclo[2.2.1]heptan-4-yl)imidazo[1,2-a]pyridine-6-carboxamide] stands 0.0018 µM; under `CC(C)Oc1cc2nc(C34COC(C3)C4)cn2cc1C(=O)Nc1ccn(C)n1` [Example 546, 2-(2-Oxabicyclo[2.1.1]hexan-4-yl)-7-isopropoxy-N-(1-methyl-1H-pyrazol-3-yl)imidazo[1,2-a]pyridine-6-carboxamide], 0.0086 µM; under `CCOc1nc(C(=O)Nc2ccn(CC)n2)cn2cc(C34COC(C)(C3)C4)nc12` [Example 501, 8-Ethoxy-N-(1-ethyl-1H-pyrazol-3-yl)-2-(1-methyl-2-oxabicyclo[2.1.1]hexan-4-yl)imidazo[1,2-a]pyrazine-6-carboxamide], 0.0069 µM.
Compound `CCOc1cc(C(=O)Nc2cccc(C(F)F)n2)cn2cc([C@H]3CCCOC3)nc12` (single isomer, unassigned) [Example 55] gave an IC50 of 0.0135 µM.
For `CC(C)Oc1cc2nc([C@]34CC[C@](C)(C3)OC4)cn2cc1C(=O)Nc1cccc(C(F)F)n1` (single isomer, unassigned) [Example 608], the IC50 is 0.0001 µM.
For the compound `CC12CCC(c3cn4cc(C(=O)Nc5cccnc5OC(F)F)c(OC5CCC5)cc4n3)(CO1)C2` (centres unmarked) [Example 536, 7-Cyclobutoxy-N-(2-(difluoromethoxy)pyridin-3-yl)-2-(1-methyl-2-oxabicyclo[2.2.1]heptan-4-yl)imidazo[1,2-a]pyridine-6-carboxamide], it took 0.0016 µM to reach half-maximal inhibition (IC50).
As for `CC(C)Oc1nc2nc(C34CC(C)(C3)OC4(C)C)cn2cc1C(=O)Nc1cnn2cc(F)cnc12` [Example 310, N-(6-fluoropyrazolo[1,5-a]pyrimidin-3-yl)-7-isopropoxy-2-(1,3,3-trimethyl-2-oxabicyclo[2.1.1]hexan-4-yl)imidazo[1,2-a]pyrimidine-6-carboxamide], inhibition was half-maximal at 0.001 µM (IC50).
Compound `COc1nc(C(=O)Nc2cccc(C(F)F)n2)cn2cc(C34CCOC(C)(C3)C4)nc12` [Example 234] had an IC50 of 0.0053 µM.
For the compound `Cc1nocc1NC(=O)c1cn2cc(C34CCC(C)(C3)OC4)nc2cc1OC(C)C` (centres unmarked) [Example 507, 7-Isopropoxy-2-(1-methyl-2-oxabicyclo[2.2.1]heptan-4-yl)-N-(3-methylisoxazol-4-yl)imidazo[1,2-a]pyridine-6-carboxamide], the IC50 amounted to 0.0095 µM.

Still in this assay, the particulars now being: IRAK4 Biochemical Assay (1 mM ATP, 2 h) IC50 (μM), 1 mM ATP, 2 h, 100 pM IRAK4.
The compound `CCOc1nc(C(=O)Nc2cccnc2OC)cn2cc(C34CCC(C)(C3)OC4)nc12` (centres unmarked) [Example 276, 8-Ethoxy-N-(2-methoxypyridin-3-yl)-2-(1-methyl-2-oxabicyclo[2.2.1]heptan-4-yl)imidazo[1,2-a]pyrazine-6-carboxamide trifluoroacetate] displayed an IC50 of 0.0009 µM.
The compound `CCc1cccc(NC(=O)c2cn3cc(C4CC(OC)C4)nc3cc2OC)n1` (centres unmarked) [Example 61] registered an IC50 of 0.0351 µM.
Same read-out and setting: for `CC(C)Oc1nc2nc(C34CCC(C)(CC3)OC4)cn2cc1C(=O)Nc1cccn(C)c1=O` [Example 654, 7-isopropoxy-N-(1-methyl-2-oxo-1,2-dihydropyridin-3-yl)-2-(1-methyl-2-oxabicyclo[2.2.2]octan-4-yl)imidazo[1,2-a]pyrimidine-6-carboxamide] the value was 0.0005 µM.
Compound `CC(C)Oc1cc2nc(C34COC(CF)(C3)C4)cn2cc1C(=O)Nc1cccc(C(F)F)n1` [Example 289, N-(6-(difluoromethyl)pyridin-2-yl)-2-(1-(fluoromethyl)-2-oxabicyclo[2.1.1]hexan-4-yl)-7-isopropoxyimidazo[1,2-a]pyridine-6-carboxamide] returned an IC50 of 0.0002 µM.
`CC(C)Oc1cc2nc(C34COC(C)(C3)C4)cn2cc1C(=O)Nc1cc(F)n(C)n1` [Example 641, N-(5-fluoro-1-methyl-1H-pyrazol-3-yl)-7-isopropoxy-2-(1-methyl-2-oxabicyclo[2.1.1]hexan-4-yl)imidazo[1,2-a]pyridine-6-carboxamide trifluoroacetate] showed an IC50 of 0.0062 µM.

By IC50 is commonly meant the point on the concentration scale where inhibition reaches its midpoint. Read a high IC50 as weaker potency in that assay.
